Measurements published in patent US12653860B2, “Compositions and methods for editing beta-globin for treatment of hemaglobinopathies” (Vertex Pharmaceuticals Incorporated, priority 2019, dated 2026).

Tests used:
Assay type in all cases: cell-based
[1] = test system: BFP gene encoded in the AAVS1 locus of HEK293 T cells; experiment: BFP to GFP reporter assay of HDR repair (flow cytometry); conditions: for HDR efficiency (improvement): 1.25 μM SCR7 or 10 μM RS-1, any ssODN construct, relative to DMSO alone
Procedure: An in vitro assay was conducted to determine the ability of various inhibitors and enhancers to improve the efficiency of HDR repair in HEK293 T cells. Specifically, a fluorescent reporter-based screening approach was developed to identify molecules that enhance gene-editing by HDR. A reporter system was generated in HEK293 T cells comprising a genomic AAVS1 locus that encoded either a blue fluorescent protein (BFP) or a green fluorescent protein (GFP) within the AAVS1 locus. A gene encoding BFP can be converted to a gene encoding GFP by substitution of cytosine at position 199 to uridine (e.g., a C to U transition at position 199). By introducing a DSB within the BFP gene using a CRISPR/Cas9 gene-editing system, a homology donor DNA encoding the nucleotide substitution can be used to edit the BFP gene to a GFP gene by HDR repair. Thus, a gene edit that induces a C to U transition at position 199 results in a change in cellular fluorescence. A change in the fluorescence of the cell measured by flow cytometry can be used to quantify efficiency of HDR repair. Additionally, the reverse gene edit can be performed for an AAVS1 locus encoding a GFP gene, wherein a GFP can be converted to BFP by substitution of uridine at position 199 to cytosine.
To create the reporter system, an AAV-based homology donor DNA encoding either BFP or GFP was created. The AAV-BFP or AAV-GFP donor was flanked by homology arms that were 1000 base pairs in length and expression of BFP or GFP was driven by the MND promoter (e.g., a synthetic promoter that contains the U3 region of a modified Moloney murine leukemia virus long term terminal repeat with myeloproliferative sarcoma virus enhancer and deleted negative control region, SEQ ID NO: 58). The viral DNA was packaged into capsids of adeno-associated virus serotype 6 (AAV6) vector. Either the BFP or GFP donor was introduced using the AAV6 vector into the AAVS1 locus in HEK293 T cells by homologous recombination using CRISPR-Cas9 as follows: purified Cas9 protein was complexed with two different single gRNAs (sgRNAs) targeting the AAVS1 locus at SEQ ID NO: 3 (spacer sequence identified by SEQ ID NO: 4; gRNA obtained from Maxcyte) or SEQ ID NO: 5 (spacer sequence identified by SEQ ID NO: 6; gRNA obtained from Thermo Fisher). Cas9 protein used in the Exemplary section provided herein refers to Cas9 polypeptide derived from S pyogenes (SpCas9), unless indicated otherwise.
The Cas9-sgRNA complex was electroporated into the HEK293 T cells using the Lonza Nucleofector program CM-130. Approximately, 2 hours after electroporation, the cells were infected with various viral doses of AAV6 encoding a BFP (SEQ ID NO: 44) or GFP homology donor (SEQ ID NO: 47). One week later, cells were analyzed by flow cytometry to verify integration and expression of BFP or GFP in the AAVS1 locus. HEK293 T cells expressing BFP or GFP were sorted into single cells in 96-well plates. After −2 weeks of growth, DNA extracted from individual cells was analyzed for precise integration of the respective BFP or GFP gene into the AAVS1 locus by long-range PCR. This PCR analysis allowed for determination of whether the BFP/GFP gene was integrated in one or both alleles of the AAVS1 locus.
To introduce a gene edit that converts BFP to GFP, cells were electroporated with ribonucleoprotein (RNP) comprised of Cas9 and sgRNA that targets the BFP gene encoded in the AAVS1 locus. The sgRNA targeted a sequence in the BFP gene identified by SEQ ID NO: 7 (sgRNA spacer sequence identified by SEQ ID NO: 8). The sgRNA were prepared using a standard sgRNA cassette specific to SpCas9, as indicated by SEQ ID NO: 2 (wherein a, c, g, u represent 2′ O-methyl phosphorothioate nucleotides; s represents phosphorothioate nucleotides; and A, C, G, U, N represent canonical RNA nucleotides). The gRNAs used in the Exemplary section provided herein were sgRNAs prepared with the SpCas9 sgRNA cassette unless indicated otherwise. […]

[2] = test system: GSD1a locus in HEK293 T cells; experiment: HDR editing of GSD1a locus with ssODN homology donors; conditions: FIG. 3; for HDR efficiency: 1.25 μM SCR7 or 10 μM RS-1
Procedure: 2×10^5 cells were edited with 1 μM Cas9 and 1.5 μM gRNA. The cells were transfected with two different ssODNs homology donors: 93-50 (SEQ ID NO: 39) or 25-100 (SEQ ID NO: 40). These two ssODN donors contain homology arms spanning both sides of the double-stranded break induced by the Cas9-guide and facilitate correction of a point mutation in the G6PC gene sequence by HDR. Cells were edited with 100 μM ssODN. The cells were treated with 2.5 μM Nu7441, 1.25 μM SCR7, or 10 μM RS-1 and the effect on HDR efficiency was evaluated.

[3] = test system: GSD1a locus in HEK293 T cells; experiment: Gene correction by NHEJ repair at GSD1a locus with dsDNA donors; conditions: dsDNA donors 50-0 or 150-0; 2.5 μM Nu7441, 1.25 μM SCR7 or 10 μM RS-1; vs DMSO alone; FIG. 3
Procedure: The effect of Nu7441 treatment on gene correction by the NHEJ pathway was also evaluated. To do so, the cells were transfected with two different dsDNA donors: 50-0 (SEQ ID NO: 37) or 150-0 (SEQ ID NO: 38). Cells were edited with 1.5 g dsDNA donor. These dsDNA donors, lacking homology arms, introduce a second 3′ splice site into exon 2 at the GSD1a locus when inserted into the cut site induced by the Cas9-guide complex by NHEJ repair. The cells were treated with 2.5 μM Nu7441, 1.25 μM SCR7, or 10 μM RS-1 and gene correction by NHEJ repair was evaluated. […] Treatment with SCR7 or RS-1 had no effect over DMSO alone.

## O=c1[nH]c(=S)[nH]c(N=Cc2ccccc2)c1N=Cc1ccccc1 [SCR7]
[1]; FIG. 1A
  HDR efficiency (improvement): no improvement in HDR efficiency
[2]
  HDR efficiency: no effect
[3]
  gene correction by NHEJ repair: no effect

## O=c1cc(N2CCOCC2)oc2c(-c3cccc4c3sc3ccccc34)cccc12 [Nu7441]
[1]; 2.5 μM Nu7441, each of four ssODN constructs, FIG. 1A
  HDR efficiency, fold higher: approximately 3 fold
[1]; 2.5 μM vs 0.6 μM Nu7441, FIG. 1B, 1C
  HDR efficiency, high vs low concentration: approximately 1.5 fold
[1]; concentrations of Nu7441 higher than 2.5 μM
  HDR efficiency at higher concentrations: no further improvement in HDR efficiency
[2]; 2.5 μM Nu7441, ssODN 93-50 or 25-100
  HDR efficiency, fold increase over DMSO alone: approximately 1.7 fold
[3]
  gene correction by NHEJ repair: substantial decrease in gene correction

## O=C(Nc1ccc(Br)cc1)c1ccc(Br)c(S(=O)(=O)NCc2ccccc2)c1 [RS-1]
[1]; FIG. 1A
  HDR efficiency (improvement): no improvement in HDR efficiency
[2]
  HDR efficiency: no effect
[3]
  gene correction by NHEJ repair: no effect

## i53: polypeptide inhibitor of 53BP1 (SEQ ID NO: 70), delivered as mRNA (ORF SEQ ID NO: 69)
[1]; different doses of mRNA encoding i53, ssODNs Hn-91-61 and Ht-39-88, FIG. 1D
  HDR efficiency: HDR efficiency increased
